Results as given in PubChem BioAssay AID1963851 (Molecular Pharmacology Branch, DTP, NCI, 2024).

System: 188146-221-R-J1-PDC complex spheroid viability
Assay: Anticancer human tumor 188146-221-R-J1-PDC patient-derived colon adenocarcinoma cell line growth inhibition [POLQ]
Details: for IC50: curve of first compound; for viability, T/C: stronger effect = lower value
Procedure, shortened: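 Growth inhibition in 3D: complex spheroids (tumor PDC, HUVEC, MSC) treated with POLQ inhibitor combinations; where Cmax unknown, highest tested concentration 10 microM, except SN-38 at 1 microM.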
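Also: spheroids exposed to compounds for seven days.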
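For viability, T/C in this document: 100% = DMSO vehicle control viability.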

CC(=O)O[C@H]1C(=O)[C@@]2(C)[C@H]([C@H](OC(=O)c3ccccc3)[C@]3(O)C[C@H](OC(=O)[C@H](O)[C@@H](NC(=O)c4ccccc4)c4ccccc4)C(C)=C1C3(C)C)[C@]1(OC(C)=O)CO[C@@H]1C[C@@H]2O + Nc1ccc(C#CCN(C(=O)Cc2ncc(C(F)(F)F)cc2C(F)(F)F)c2ccc(F)cc2)nn1
IC50 (second compound 0.0316 µM): 13.6 nM | IC50 (second compound 0.1 µM): 12.5 nM | IC50 (second compound 0.316 µM): 14.5 nM | IC50 (second compound 1 µM): 10.4 nM | IC50 (second compound 3.16 µM): 10.5 nM | IC50 (second compound 10 µM): < 9.49 nM | viability, T/C (second compound 0.0316 µM, first compound 0.00949 µM): 63.4% | viability, T/C (second compound 0.0316 µM, first compound 0.03 µM): 20.8% | viability, T/C (second compound 0.0316 µM, first compound 0.0949 µM): 12.1% | viability, T/C (second compound 0.0316 µM, first compound 0.3 µM): 12.3% | viability, T/C (second compound 0.0316 µM, first compound 0.949 µM): 12.3% | viability, T/C (second compound 0.0316 µM, first compound 3 µM): 11.4% | viability, T/C (second compound 0.1 µM, first compound 0.00949 µM): 59.2% | viability, T/C (second compound 0.1 µM, first compound 0.03 µM): 22.4% | viability, T/C (second compound 0.1 µM, first compound 0.0949 µM): 12.4% | viability, T/C (second compound 0.1 µM, first compound 0.3 µM): 11.6% | viability, T/C (second compound 0.1 µM, first compound 0.949 µM): 13.2% | viability, T/C (second compound 0.1 µM, first compound 3 µM): 17.6% | viability, T/C (second compound 0.316 µM, first compound 0.00949 µM): 67.8% | viability, T/C (second compound 0.316 µM, first compound 0.03 µM): 19.9% | viability, T/C (second compound 0.316 µM, first compound 0.0949 µM): 11.4% | viability, T/C (second compound 0.316 µM, first compound 0.3 µM): 13.2% | viability, T/C (second compound 0.316 µM, first compound 0.949 µM): 12.4% | viability, T/C (second compound 0.316 µM, first compound 3 µM): 12.9% | viability, T/C (second compound 1 µM, first compound 0.00949 µM): 53.1% | viability, T/C (second compound 1 µM, first compound 0.03 µM): 16% | viability, T/C (second compound 1 µM, first compound 0.0949 µM): 14% | viability, T/C (second compound 1 µM, first compound 0.3 µM): 10.8% | viability, T/C (second compound 1 µM, first compound 0.949 µM): 12.7% | viability, T/C (second compound 1 µM, first compound 3 µM): 13.6% | viability, T/C (second compound 3.16 µM, first compound 0.00949 µM): 53.4% | viability, T/C (second compound 3.16 µM, first compound 0.03 µM): 16.5% | viability, T/C (second compound 3.16 µM, first compound 0.0949 µM): 14.4% | viability, T/C (second compound 3.16 µM, first compound 0.3 µM): 12.5% | viability, T/C (second compound 3.16 µM, first compound 0.949 µM): 12.9% | viability, T/C (second compound 3.16 µM, first compound 3 µM): 14% | viability, T/C (second compound 10 µM, first compound 0.00949 µM): 45.5% | viability, T/C (second compound 10 µM, first compound 0.03 µM): 16.9% | viability, T/C (second compound 10 µM, first compound 0.0949 µM): 15.8% | viability, T/C (second compound 10 µM, first compound 0.3 µM): 13.3% | viability, T/C (second compound 10 µM, first compound 0.949 µM): 14.4% | viability, T/C (second compound 10 µM, first compound 3 µM): 17.6%

CC[C@@]1(O)C(=O)OCc2c1cc1n(c2=O)Cc2cc3c(CN(C)C)c(O)ccc3nc2-1 + Nc1ccc(C#CCN(C(=O)Cc2ncc(C(F)(F)F)cc2C(F)(F)F)c2ccc(F)cc2)nn1
IC50 (second compound 0.0316 µM): > 100 nM | IC50 (second compound 0.1 µM): > 100 nM | IC50 (second compound 0.316 µM): > 100 nM | IC50 (second compound 1 µM): > 100 nM | IC50 (second compound 3.16 µM): > 100 nM | IC50 (second compound 10 µM): > 100 nM | viability, T/C (second compound 0.0316 µM, first compound 0.000316 µM): 89.7% | viability, T/C (second compound 0.0316 µM, first compound 0.001 µM): 95.7% | viability, T/C (second compound 0.0316 µM, first compound 0.00316 µM): 84.3% | viability, T/C (second compound 0.0316 µM, first compound 0.01 µM): 101% | viability, T/C (second compound 0.0316 µM, first compound 0.0316 µM): 96.4% | viability, T/C (second compound 0.0316 µM, first compound 0.1 µM): 73.5% | viability, T/C (second compound 0.1 µM, first compound 0.000316 µM): 118% | viability, T/C (second compound 0.1 µM, first compound 0.001 µM): 84.1% | viability, T/C (second compound 0.1 µM, first compound 0.00316 µM): 95.1% | viability, T/C (second compound 0.1 µM, first compound 0.01 µM): 100% | viability, T/C (second compound 0.1 µM, first compound 0.0316 µM): 84.9% | viability, T/C (second compound 0.1 µM, first compound 0.1 µM): 74.9% | viability, T/C (second compound 0.316 µM, first compound 0.000316 µM): 104% | viability, T/C (second compound 0.316 µM, first compound 0.001 µM): 88.4% | viability, T/C (second compound 0.316 µM, first compound 0.00316 µM): 101% | viability, T/C (second compound 0.316 µM, first compound 0.01 µM): 97.5% | viability, T/C (second compound 0.316 µM, first compound 0.0316 µM): 103% | viability, T/C (second compound 0.316 µM, first compound 0.1 µM): 69.5% | viability, T/C (second compound 1 µM, first compound 0.000316 µM): 103% | viability, T/C (second compound 1 µM, first compound 0.001 µM): 102% | viability, T/C (second compound 1 µM, first compound 0.00316 µM): 90.5% | viability, T/C (second compound 1 µM, first compound 0.01 µM): 86.4% | viability, T/C (second compound 1 µM, first compound 0.0316 µM): 82.3% | viability, T/C (second compound 1 µM, first compound 0.1 µM): 68.2% | viability, T/C (second compound 3.16 µM, first compound 0.000316 µM): 106% | viability, T/C (second compound 3.16 µM, first compound 0.001 µM): 92.9% | viability, T/C (second compound 3.16 µM, first compound 0.00316 µM): 95.1% | viability, T/C (second compound 3.16 µM, first compound 0.01 µM): 89.3% | viability, T/C (second compound 3.16 µM, first compound 0.0316 µM): 83% | viability, T/C (second compound 3.16 µM, first compound 0.1 µM): 80.1% | viability, T/C (second compound 10 µM, first compound 0.000316 µM): 100% | viability, T/C (second compound 10 µM, first compound 0.001 µM): 96.8% | viability, T/C (second compound 10 µM, first compound 0.00316 µM): 98.9% | viability, T/C (second compound 10 µM, first compound 0.01 µM): 98.3% | viability, T/C (second compound 10 µM, first compound 0.0316 µM): 90.5% | viability, T/C (second compound 10 µM, first compound 0.1 µM): 66.2%
